Assays:
Format in all cases: cell-based
H1650 cells = test: Colony formation (clonogenic) assay, H1650 cells; conditions: Homo sapiens, NCI-H1650, 192 h; H1650, harvested 8 days after initial treatment
Protocol: (§1) Protocol for clonogenic assay follows Sangodkar et al., J Clin Invest 2012; 122:2637-51.
(§2) Cell culture and staining: For both A549luc and H1650 cells, 500 cells are seeded into each well of a 6-well plate and allowed to attach for 24 hours before drug treatment. The following day, cells are treated with either the appropriate dose of drug or an equivalent volume of DMSO (two replicates were treated for each condition). For each condition, depleted media was replaced with fresh media containing the equivalent drug dose four days after initial treatment. Cells are harvested either 7 (A549 luc) or 8 (H1650) days after initial treatment. Briefly, medium is aspirated from each well and the cells are washed twice with ice-cold PBS, then plates are allowed to dry at room temperature for 4 hours. Cells are fixed for one hour in a fixing solution consisting of 10% methanol and 10% glacial acetic acid in distilled water, then stained overnight in 1% (w/v) crystal violet dissolved in methanol. The next day, staining solution is aspirated from the wells and plates are washed gently with distilled water to remove excess stain before colony counting. Colonies are imaged on a ChemiDoc XRS+ (Bio-Rad) and images are exported as 8-bit TIFF files. Colonies are counted using the Colony Counter plugin in ImageJ, with colony size defined as between 4 and 400 square pixels, and minimum circularity set at 0.6. Duplicate wells are averaged to obtain a single value for each condition. Results (number of colonies) for A549 luc cells and results (number of colonies) for H1650 cells may be analyzed separately.

A549luc cells = test: Colony formation (clonogenic) assay, A549luc cells; conditions: Homo sapiens, 168 h; A549 luc, harvested 7 days after initial treatment
Protocol: as §1, §2

H1650 lung cancer cells = test: Cell viability assay (MTT), H1650 lung cancer cells; conditions: for GI50 / IC50: Homo sapiens, NCI-H1650; for IC50: H1650 lung cancer cells, 48 h drug treatment, MTT
Protocol: Cell Viability Assays (IC50 Determination)
Cell viability assays were performed according to Denizot, F. and R. Lang, Journal of Immunological Methods, 1986. 89(22): p. 271-277. H1650 lung cancer cells were plated at 150,000 cells per well in a 12 well plate. Twenty-four hours after plating, cells were treated as described with increasing concentrations of drug and control. Forty-eight hours after drug treatment, cells were treated with 100 μL of 3-(4,5-Dimethylthiazol-2-yl)-2,5-diphenyltetrazolium bromide (MTT) and incubated for 2 hours at 37 C. The MTT solution was subsequently replaced with 300 μL of n-propyl alcohol and re-aliquoted to a 96 well plate. Spectrophotometric analysis of each solution was performed using a 96 well plate reader at 600 nm in triplicate.

Row | SMILES | GI50 (H1650 lung cancer cells; H1650 cells) [µM] | IC50 (H1650 lung cancer cells) [µM] | further results
1 | O=S(=O)(N[C@@H]1CCCC(N2c3ccccc3Oc3ccccc32)[C@H]1O)c1ccc(OC(F)(F)F)cc1 (mixture of isomers) [Example 1, N-(2-hydroxy-3-(10H-phenoxazin-10-yl)cyclohexyl)-4-(trifluoromethoxy)benzenesulfonamide] | 5 | 5 | GI50 (H1650 cells): 5 µM; GI50 (A549luc cells): 7.5 µM
2 | O=S(=O)(N[C@@H]1CCCC(N2c3ccccc3COc3ccccc32)[C@H]1O)c1ccc(OC(F)(F)F)cc1 (mixture of isomers) [Example 2, N-((1R,2R,3S)-rel-3-(dibenzo[b,e][1,4]oxazepin-5(11H)-yl)-2-hydroxycyclohexyl)-4-(trifluoromethoxy)benzenesulfonamide] | 20 | 20 | –
3 | O=S(=O)(N[C@@H]1CCCC(n2c3ccccc3c3ccccc32)[C@H]1O)c1ccc(OC(F)(F)F)cc1 (mixture of isomers) [Example 3, (1S,2S,3R)-rel-N-(3-(9H-carbazol-9-yl)-2-hydroxycyclohexyl)-4-(trifluoromethoxy)benzenesulfonamide] | 10 | 10 | GI50 (H1650 cells): 5 µM; GI50 (A549luc cells): 7.5 µM
4 | O=S(=O)(N[C@@H]1CCCC(N2c3ccccc3Oc3ccccc32)[C@H]1O)c1ccc(SC(F)(F)F)cc1 (mixture of isomers) [Example 16] | 10 | – | –
5 | O=S(=O)(N[C@@H]1CCCC(N2c3ccccc3Oc3ccccc32)[C@H]1O)c1ccc(OC(F)(F)F)cc1Cl (mixture of isomers) [Example 17] | 15 | – | –
6 | O=S(=O)(N[C@@H]1CCCC(N2c3ccccc3Oc3ccccc32)[C@H]1O)c1ccc(CC(F)(F)F)cc1 (mixture of isomers) [Example 18] | 15 | – | –
7 | O=S(=O)(N[C@@H]1CCCC(N2c3ccccc3Oc3ccccc32)[C@H]1O)c1ccc(C(F)(F)C(F)(F)F)cc1 (mixture of isomers) [Example 19] | 10 | – | –
8 | N#Cc1ccc2c(c1)c1cc(C#N)ccc1n2C1CCC[C@@H](NS(=O)(=O)c2ccc(OC(F)(F)F)cc2)[C@@H]1O (mixture of isomers) [Example 26] | – | – | H1650 GI50 (H1650 lung cancer cells; H1650 cells): Weak
9 | O=S(=O)(N[C@@H]1CCCC(n2c3ccccc3c3ccccc32)[C@H]1O)c1ccc(Cl)cc1 (relative stereo) [Example 4, N-((1S,2S,3R)-rel-3-(9H-carbazol-9-yl)-2-hydroxycyclohexyl)-4-chlorobenzenesulfonamide] | 15 | 15 | –
10 | N#Cc1ccc(S(=O)(=O)N[C@@H]2CCCC(n3c4ccccc4c4ccccc43)[C@H]2O)cc1 (relative stereo) [Example 5, N-((1S,2S,3R)-rel-3-(9H-carbazol-9-yl)-2-hydroxycyclohexyl)-4-cyanobenzenesulfonamide] | 20 | 20 | –
11 | COc1ccc(S(=O)(=O)N[C@@H]2CCCC(n3c4ccccc4c4ccccc43)[C@H]2O)cc1 (relative stereo) [Example 6, N-((1S,2S,3R)-rel-3-(9H-carbazol-9-yl)-2-hydroxycyclohexyl)-4-methoxybenzenesulfonamide] | 20 | 20 | –
12 | O=S(=O)(N[C@@H]1CCCC(n2c3ccccc3c3ccccc32)[C@H]1O)c1ccccc1 (relative stereo) [Example 7, N-((1S,2S,3R)-rel-3-(9H-carbazol-9-yl)-2-hydroxycyclohexyl) benzenesulfonamide] | 25 | 25 | –
13 | CN1C(=O)c2ccccc2N(C2CCC[C@@H](NS(=O)(=O)c3ccc(OC(F)(F)F)cc3)[C@@H]2O)c2ccccc21 (relative stereo) [Example 8, 4-Trifluoromethoxy-N-((1S,2S,3R)-rel-2-hydroxy-3-(10-methyl-11-oxo-10,11-dihydro-5H-dibenzo[b,e][1,4]diazepin-5-yl)cyclohexyl)benzenesulfonamide] | 15 | 15 | –
14 | CN1C(=O)c2ccccc2N(C2CCC[C@@H](NS(=O)(=O)c3ccc(Cl)cc3)[C@@H]2O)c2ccccc21 (relative stereo) [Example 9, 4-Chloro-N-((1S,2S,3R)-rel-2-hydroxy-3-(10-methyl-11-oxo-10,11-dihydro-5H-dibenzo[b,e][1,4]diazepin-5-yl)cyclohexyl)benzenesulfonamide] | 25 | 25 | –
15 | O=S(=O)(N[C@H]1CCC[C@@H](N2c3ccccc3Oc3ccccc32)[C@@H]1O)c1ccc(OC(F)(F)F)cc1 (single isomer, unassigned) [Example 1b] | 5 | – | GI50 (H1650 cells): 5 µM; GI50 (A549luc cells): 7.5 µM
16 | O=S(=O)(N[C@H]1CCC[C@@H](n2c3ccccc3c3ccccc32)[C@@H]1O)c1ccc(OC(F)(F)F)cc1 (single isomer, unassigned) [Example 3b] | 10 | – | GI50 (H1650 cells): 7.5 µM; GI50 (A549luc cells): 10 µM

The next lines start with results.

Row | GI50 (H1650 lung cancer cells; H1650 cells) [µM] | IC50 (H1650 lung cancer cells) [µM] | SMILES | further results
17 | 25 | – | O=S(=O)(N[C@@H]1CCCC(N2c3ccccc3Oc3ccccc32)[C@H]1O)c1ccc(OC(F)F)cc1 (mixture of isomers) [Example 20] | –
18 | 15 | – | O=S(=O)(N[C@@H]1CCCC(N2c3ccccc3Oc3ccccc32)[C@H]1O)c1ccc(OC(F)(F)F)c(Cl)c1 (mixture of isomers) [Example 21] | –
19 | 5 | – | O=S(=O)(N[C@@H]1CCCC(n2c3ccc(Cl)cc3c3cc(Cl)ccc32)[C@H]1O)c1ccc(OC(F)(F)F)cc1 (mixture of isomers) [Example 22] | –
20 | 5 | – | O=S(=O)(N[C@@H]1CCCC(n2c3ccc(Cl)cc3c3cc(Cl)ccc32)[C@H]1O)c1ccc(Cl)cc1 (mixture of isomers) [Example 23] | –
21 | 5 | – | O=S(=O)(N[C@@H]1CCCC(n2c3ccc(Br)cc3c3cc(Br)ccc32)[C@H]1O)c1ccc(OC(F)(F)F)cc1 (mixture of isomers) [Example 24] | –
22 | 15 | – | O=S(=O)(N[C@@H]1CCCC(n2c3ccc(Br)cc3c3cc(Br)ccc32)[C@H]1O)c1ccc(Cl)cc1 (mixture of isomers) [Example 25] | –
23 | 5 | – | N#Cc1ccc2c(c1)c1cc(Br)ccc1n2C1CCC[C@@H](NS(=O)(=O)c2ccc(OC(F)(F)F)cc2)[C@@H]1O (mixture of isomers) [Example 27] | –
24 | 10 | – | N#Cc1ccc2c(c1)c1ccccc1n2C1CCC[C@@H](NS(=O)(=O)c2ccc(OC(F)(F)F)cc2)[C@@H]1O (mixture of isomers) [Example 28] | –
25 | 15 | – | COC(=O)c1ccc2c(c1)c1ccccc1n2C1CCC[C@@H](NS(=O)(=O)c2ccc(OC(F)(F)F)cc2)[C@@H]1O (mixture of isomers) [Example 29] | –
26 | 5 | – | O=S(=O)(N[C@@H]1CCCC(n2c3ccccc3c3cc(Br)ccc32)[C@H]1O)c1ccc(OC(F)(F)F)cc1 (mixture of isomers) [Example 30] | –
27 | 5 | – | O=S(=O)(N[C@H]1CCC[C@@H](n2c3ccccc3c3cc(F)ccc32)[C@@H]1O)c1ccc(OC(F)(F)F)cc1 (stereo in doubt) [Example 31b, N-((1S,2S,3R)-3-(3-fluoro-9H-carbazol-9-yl)-2-hydroxycyclohexyl)-4-(trifluoromethoxy)benzenesulfonamide] | –
28 | 5 | – | O=S(=O)(N[C@H]1CCC[C@@H](n2c3ccccc3c3cc(F)ccc32)[C@@H]1O)c1ccc(OC(F)(F)F)cc1 [Example 31a, N-((1S,2S,3R)-3-(3-fluoro-9H-carbazol-9-yl)-2-hydroxycyclohexyl)-4-(trifluoromethoxy)benzenesulfonamide] | –
29 | 5 | – | O=S(=O)(N[C@H]1CCC[C@@H](n2c3ccc(F)cc3c3cc(F)ccc32)[C@@H]1O)c1ccc(OC(F)(F)F)cc1 [Example 32a, N-((1S,2S,3R)-3-(3,6-difluoro-9H-carbazol-9-yl)-2-hydroxycyclohexyl)-4-(trifluoromethoxy)benzenesulfonamide] | –
30 | 5 | – | O=S(=O)(N[C@@H]1CCC[C@H](n2c3ccc(F)cc3c3cc(F)ccc32)[C@H]1O)c1ccc(OC(F)(F)F)cc1 [Example 32b] | –

— patent US9937186B2, “Sulfonamides derived from tricyclyl-2-aminocycloalkanols as anticancer agents” (ICAHN SCHOOL OF MEDICINE AT MOUNT SINAI, priority 2014, dated 2018)
